Assays:
[1] = system: prostate cancer lesions (PC-3 xenograft); assay: In vivo imaging in PC-3 mouse xenograft model; set-up: species or system BALB/c nude mice; conditions: intravenous injection, at 2, 4, and 8 hours
Procedure: Male BALB/c nude mice (BALB/c-nude) were purchased from Beijing SLAC Laboratory Animal Co., Ltd. Five-week-old nude mice were subcutaneously injected with 5×10^6 PC-3 cells on the back. The tumor was allowed to grow for 15 to 20 days until it reached a diameter of 0.5-1.5 cm. The BALB/c nude mice bearing tumors were anesthetized with sedatives and anesthetics. Once the mice were immobilized, a designated dose (0.1 mg, 0.5 mg, 1 mg, 2 mg per injection) of GGa-ICG or ssDNA-ICG was injected through the tail vein. At certain time points, fluorescent images of live mice were collected using the IVIS Lumina II in vivo imaging system. For ex vivo fluorescent experiments, tumor-bearing mice that were intravenously injected with GGa-ICG or ssDNA-ICG were euthanized by cervical dislocation 1 hour after injection under anesthesia. After dissection, organs including brain, liver, kidney, spleen, lung, heart, and tumor tissue were imaged using the IVIS Lumina II in vivo imaging system as described above.

[2] = Fluorescence stability detection; assay type: physicochemical; conditions: after excitation at 780 nm
Procedure: Stability testing was divided into two groups: 1) stability testing under excitation wavelength and 2) stability testing of GGa-ICG under visible light. Excitation wavelength of 780 nm (GGa-ICG, ssDNA-ICG, and ICG) and visible light were used to excite the fluorescence probe GGa-ICG. Fluorescence detection was performed, and the changes in fluorescence intensity were recorded using a fluorescence spectrophotometer.

time after which fluorescence was extinguished [2]: 1 h
SMILES: CC1(C)C(/C=C/C=C/C=C/C=C2\N(CCCCS(=O)(=O)O)c3ccc4ccccc4c3C2(C)C)=[N+](CCCCS(=O)(=O)[O-])c2ccc3ccccc3c21 [ICG, indocyanine green, reference compound]
binding to prostate cancer lesions in vivo [1]: specifically bound

— US20240358862A1, “Synthesis Method and Application of a Near-infrared Probe GGa-ICG specific binding to PSCA” (Guangzhou Shiyun Biotechnology Co., Ltd, priority 2022, published 2024)
